In the supplement of paper PMC11208160:

Test: recombinant barcode read abundance after kanamycin selection (control-corrected) (log10(CPM+1)); higher = more efficient recombination; sequences stand for … in AGTGCAGAGAAAATCGGCCAGTTTTCTCTGCCTGCAGTCCGCATGCCGT…AGATTTATGCAGCGGACTGCCTTTCTCCCAAAGTGATAAACCGGACAGTATCATGGACCGGTTTTCCCGGTAATCCGTATTTGCAAGGTTGGTTTCACT; site = the 11-nt target
Method in brief: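 Oligos holding a promoter, target, barcode and the J23119-driven first 104 bases of the bridge RNA were Gibson-cloned into a vector that supplied the other 73 bp plus a T7-inducible recombinase. This library was co-electroporated with a donor plasmid into E. coli. Two replicates went on chloramphenicol/ampicillin LB agar (control) and two on chloramphenicol/ampicillin/kanamycin with 0.1 mM IPTG. Recombination efficiency is read from averaged, control-corrected barcode counts per million at recombinant junctions, reported as log10(CPM+1).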
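Note: IS621 recombinase and bridge RNA in Escherichia coli cells.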

Compared with “TGGCGAGCTTGGGTTCTAACCTGTTGCCT (site TGGCCTGCTAG)”, “TGGCGAGCTTGGGTTCTAACCTGTTGCCT (site TGGCGAGCTAG)” is higher in “recombinant barcode read abundance (log10)” value: 0.152 for the first, 1.02 for the second.

Compared with “TGGCGCTCTTGGGTTCTAACCTGTTGCCT (site TGACGCTCTAG)”, “TGGCGCTCTTGGGTTCTAACCTGTTGCCT (site TGCCGCTCTAG)” is lower in “recombinant barcode read abundance (log10)” value: 0.855 for the first, 0 for the second.

Compared with “TGGCGCTCTTGGGTTCTAACCTGTTGCCT (site TGGCGCTCTAG)”, “TGGCGCTCTTGGGTTCTAACCTGTTGCCT (site TGTCGCTCTAG)” is lower in “recombinant barcode read abundance (log10)” value: 0.457 for the first, 0.0369 for the second.

“TGGCTATCTTGGGTTCTAACCTGTTGCCT (site CGGCTATCTAG)” and “TGGCTATCTTGGGTTCTAACCTGTTGCCT (site TGGCTATCTAG)” are within 0.2 log units of each other in “recombinant barcode read abundance (log10)” value: 0.00906 for the first, 0.187 for the second.

First: TGGCTCCCTTGGGTTCTAACCTGTTGCCG (site TGGCTCCCTCC)
Second: TGGCTCCCTTGGGTTCTAACCTGTTGCCG (site TGGCTCCCTCG)
The “recombinant barcode read abundance (log10)” value of the first is lower: 0.077 for the first, 1.35 for the second.

“TGGCTCCCTTGGGTTCTAACCTGTTGCGG (site TGGCTCCCTCC)” and “TGGCTCCCTTGGGTTCTAACCTGTTGCGG (site TGGCTCCCTCG)” are within 0.2 log units of each other in “recombinant barcode read abundance (log10)” value: 0.188 for the first, 0.12 for the second.

Compared with “TGGGACTCTTGGGTTCTAACCTGTTGCCA (site TCGGACACTTG)”, “TGGGACTCTTGGGTTCTAACCTGTTGCCA (site TGGGACTCTTG)” is higher in “recombinant barcode read abundance (log10)” value: 0.328 for the first, 2.29 for the second.

Compared with “TGGGATCCTTGGGTTCTAACCTGTTGCAT (site AGGGGTCCTAT)”, “TGGGATCCTTGGGTTCTAACCTGTTGCAT (site TGGGATCCTAT)” is higher in “recombinant barcode read abundance (log10)” value: 0.0813 for the first, 1.73 for the second.

Going from “TGGGGCCCTTGGGTTCTAACCTGTTGCCT (site TGGGGCCCTAG)” to “TGGGGCCCTTGGGTTCTAACCTGTTGCCT (site TGGTGCCCTAC)”, the “recombinant barcode read abundance (log10)” value falls from 1.66 to 0.156.

Compared with “TGGGGTCCTTGGGTTCTAACCTGTTGCCT (site TGGAGTCCTAG)”, “TGGGGTCCTTGGGTTCTAACCTGTTGCCT (site TGGCGTCCTAG)” is lower in “recombinant barcode read abundance (log10)” value: 1.52 for the first, 0.0786 for the second.

First: TGGGGTCCTTGGGTTCTAACCTGTTGCCT (site TGGGGTCCTAG)
Second: TGGGGTCCTTGGGTTCTAACCTGTTGCCT (site TGGTGTCCTAG)
The “recombinant barcode read abundance (log10)” value of the first is higher: 2.33 for the first, 0.217 for the second.

Compared with “TGGGTCCCTTGGGTTCTAACCTGTTGCCT (site TGAGTCCCTAG)”, “TGGGTCCCTTGGGTTCTAACCTGTTGCCT (site TGCGTCCCTAG)” is lower in “recombinant barcode read abundance (log10)” value: 2.14 for the first, 0.102 for the second.

First: TGGGTCCCTTGGGTTCTAACCTGTTGCCT (site TGGGTCCCTAG)
Second: TGGGTCCCTTGGGTTCTAACCTGTTGCCT (site TGTGTCCCTAG)
The “recombinant barcode read abundance (log10)” value of the first is higher: 3 for the first, 0.0764 for the second.

Compared with “TGGTACCCTTGGGTTCTAACCTGTTGCCT (site TGGTACCCTAG)”, “TGGTACCCTTGGGTTCTAACCTGTTGCCT (site TGTTACCCTAG)” is lower in “recombinant barcode read abundance (log10)” value: 1.64 for the first, 0.126 for the second.

“TGGTATTCTTGGGTTCTAACCTGTTGCCT (site TGGTATACTAG)” and “TGGTATTCTTGGGTTCTAACCTGTTGCCT (site TGGTATCCTAG)” are within 0.2 log units of each other in “recombinant barcode read abundance (log10)” value: 0.0539 for the first, 0.113 for the second.

Compared with “TGGTATTCTTGGGTTCTAACCTGTTGCCT (site TGGTATGCTAG)”, “TGGTATTCTTGGGTTCTAACCTGTTGCCT (site TGGTATTCTAG)” is higher in “recombinant barcode read abundance (log10)” value: 0.11 for the first, 0.373 for the second.

Compared with “TGGTCCGCTTGGGTTCTAACCTGTTGCCT (site TGGTACGCTAG)”, “TGGTCCGCTTGGGTTCTAACCTGTTGCCT (site TGGTCCGCTAG)” is higher in “recombinant barcode read abundance (log10)” value: 0.257 for the first, 1.58 for the second.

“TGGTCCGCTTGGGTTCTAACCTGTTGCCT (site TGGTGCGCTAG)” and “TGGTCCGCTTGGGTTCTAACCTGTTGCCT (site TGGTTCGCTAG)” are within 0.2 log units of each other in “recombinant barcode read abundance (log10)” value: 0.0483 for the first, 0.243 for the second.

First: TGGTGCCCTTGGGTTCTAACCTGTTGCGT (site TGGGGCCCTAG)
Second: TGGTGCCCTTGGGTTCTAACCTGTTGCGT (site TGGTGCCCTAC)
The “recombinant barcode read abundance (log10)” value of the first is lower: 0.122 for the first, 1.83 for the second.

Compared with “TGGTTACCTTGGGTTCTAACCTGTTGCCT (site TGGTTACCTAG)”, “TGGTTACCTTGGGTTCTAACCTGTTGCCT (site TGTTTAACTAG)” is lower in “recombinant barcode read abundance (log10)” value: 1.17 for the first, 0.0377 for the second.

Going from “TGTACGTCTTGGGTTCTAACCTGTTGCTT (site TGTACGACTAG)” to “TGTACGTCTTGGGTTCTAACCTGTTGCTT (site TGTACGTCTAA)”, the “recombinant barcode read abundance (log10)” value rises from 0.0847 to 0.326.

With “TGTAGAGCTTGGGTTCTAACCTGTTGCAG (site TGTAGAGCTCT)” the “recombinant barcode read abundance (log10)” value was 0.872.
